Publication PMC11156899, “High-throughput screening unveils nitazoxanide as a potent PRRSV inhibitor by targeting NMRAL1” (Nature Communications, 2024)

What was measured:
in vitro = settings: pig
Method: (§1) A concentration-gradient screening strategy was employed for 141 compounds using indirect immunofluorescence assay (IFA). […] Data are mean ± SEM.
(§2) Cells were seeded in 96-well plates and grown in DMEM supplemented with 10% FBS. Upon reaching confluence, compounds were diluted to varying concentrations in 2% FBS-containing medium. Control wells contained DMEM with 0.5% DMSO. Treated cells were incubated at 37 °C in a 5% CO2 humidified environment for 48 or 72 h, followed by cytotoxicity assessment as outlined in our previous work[21]. […]

[1] = test system: Porcine alveolar macrophages (PAM); test: in vitro
Method: as §1, §2

NSP12 = test: In vitro binding (DSF/CETSA) of NSP12 purified by inclusion bodies; design: species or system PRRSV GSWW-18 strain; settings: NSP12 purified by IBs, different buffer systems
Method: For DSF, 20 μM purified NSP1α and NSP12 protein from the GSWW-18 strain, as well as NMRAL1 protein (Accession: A0A0D9R9W0) was thoroughly mixed with 20 μM SYPRO Orange (S6650, Thermo) in a buffer containing 10 mM HEPES and 200 mM NaCl at pH 7.20. An equal volume of 100 μM NTZ, dissolved in the same buffer, was added and the mixture was filtered through a 0.22 μm filter. For controls, an equivalent volume of DMSO was used. […] DSF experiments were monitored using the QuantStudio™ 5 Real-Time PCR System (Thermo). Data were analyzed using DSFworld[42].
'FT' is the flow-through after passing through the Ni column. 'Ni-200' and 'Ni-500' represent different purification conditions with varying concentrations. 'L2' is the total cell lysate after changing the expression conditions. 'S2' is the supernatant after cell lysis with changed expression conditions. The portions highlighted in red boxes indicate the target protein. […]
constant (KD) between Nsp1α and TIZ is lower than that of NMRAL1. We observe that […]
attempting different systems (Fig. R5 e-h). Although SPR confirms the interaction […]
possibly be attributed to the abnormal protein conformation of NSP12 purified by IBs. […]
(b) The KD value of Nsp1α determined using the Kinetics fit model. […]
(I) The KD value of Nsp12 determined using the Kinetics fit model. […]

[2] = pig, in vivo, po
Method: Blood samples were collected from the anterior vena cava for complete blood count using a PE-6800VET analyzer (Prokan) and biochemical analysis using a VetTest Plasma Chemistry Analyzer (IDEXX). Reference ranges were obtained from Iowa State University College of Veterinary Medicine (https://vetmed.iastate.edu/vpath/services/diagnostic-services/clinical-pathology/testing-and-fees/reference-intervals). IHC were performed as previously described, involving 24-h incubation with SR30 antibody (1:400) and subsequent treatment with HRP-labeled secondary antibody.
Supplementary Fig. 6: Complete Blood Counts and Biochemical Analysis.
Six animals from the same enclosure were divided into three groups (n = 2) and fed different doses of NTZ twice daily for three
consecutive days, with a 12-hour interval. Parameters measured included White Blood Cell (WBC) counts, Lymphocyte (LYM)
percentages, Monocyte (MONO) counts, Neutrophil (NEU) counts, Red Blood Cell (RBC) counts, Hemoglobin (HGB)
concentration, Mean Corpuscular Hemoglobin (MCH), Mean Corpuscular Hemoglobin Concentration (MCHC), Platelet (PLT)
counts, Albumin (ALB) concentration, Total Protein (TP) concentration, Glucose (GLU) levels, Alkaline Phosphatase (ALP)
levels, Total Bilirubin (TBIL) levels, and Blood Urea Nitrogen (BUN) concentration. The grey areas in each panel represent the
reference ranges for these indices.

## CC(=O)Oc1ccccc1C(=O)Nc1ncc([N+](=O)[O-])s1 [Nitazoxanide]
In vitro
  CC50 at 48 h: ~44 µM
[1]
  cytotoxicity (in words): low cytotoxicity
NSP12
  binding activity with NSP12 in vitro: did not exhibit binding activity
[2]
  adverse reactions (hematology, biochemical indices, clinical activity): No adverse reactions
